Measured values as given in US20050187288A1, “Beta-lapachone and methods of treating cancer” (priority 2004, published 2005).

Key:
ASPC-1 = assay: Colony formation assay, combination with Taxol; assay type: cell-based, human; conditions: β-Lapachone 4 μM, Taxol 0.2 μM, 4 hours
Protocol: Control wells were treated with equivalent volumes of DMSO. After 4 hours cells were rinsed and fresh medium is added. Cultures were observed daily for 10-20 days and then were fixed and stained. […] DNA laddering formation and annexin staining indicate that cell death is due to apoptosis.

G480 lung cancer cells = assay: Colony formation assay, single agents and combination; assay type: cell-based; conditions: G480; β-lapachone 4 μM, 4 hours; average (SEM) of three experiments
From the text: Control plates received the same volume of DMSO alone. […] Treated wells were presented as percentage of control. Data were presented as an average (+SEM) from three independent experiments.

60 cancer cell lines = conditions: FDA approved agents, publicly available data; cited from earlier work

Row | Compound | Colonies, Percentage of control (ASPC-1) | Colonies (percent control) (G480 lung cancer cells) | mean LC50 across all cells compared with the mean of β-lapachone (60 cancer cell lines)
1 | CC(=O)O[C@H]1C(=O)[C@@]2(C)[C@H]([C@H](OC(=O)c3ccccc3)[C@]3(O)C[C@H](OC(=O)[C@H](O)[C@@H](NC(=O)c4ccccc4)c4ccccc4)C(C)=C1C3(C)C)[C@]1(OC(C)=O)CO[C@@H]1C[C@@H]2O [Taxol ®, paclitaxel, reference compound] | 71 (0.8) Percentage of control | 39 (2.6) percent control | –
2 | O=C1c2c(O)ccc(O)c2C(=O)c2c(NCCNCCO)ccc(NCCNCCO)c21 [mitoxantrone] | – | – | equals it
